Data set [1] concerns the target proteins in rat lung membranes. The data set can be described thus: Competitive binding assay with [3H]-CP2117 on rat lung membranes (RLM). To be noted: given as Log IC50 (negative values); displacement of 10 nM [3H]-CP2117, overnight at 4° C.; ND- not detected.
Data set [2] has as its system PGE2 release in U937 cells. The data set can be described thus: PGE2 release from PMA-treated U937 cells (radioimmunoassay). To be noted: 24 hour incubation; for activity at 1 µM: Homo sapiens, U-937, 24 h, read-out: Effects on PGE2 release in U937 cells at 1 μM as a % of PMA control, mean. The class given is cell-based, human. On the procedure: The U937 monocytic cell line (available from the ATCC, USA) is commonly used to evaluate anti-inflammatory agents. In the present experiment, U937 cells maintained in culture in a medium comprising RPMI containing (5% FCS v/v; supplemented with 100 U/ml penicillin, and […] streptomycin) were treated with phorbol myristate acetate (10 nM) then immediately dispersed into a 24 well cell culture plate at a concentration of 2×10^5 cells per ml in a volume of 1 ml per well. After 24 hours by which time the cells had adhered to the plastic substrate, they were treated with one of several analogues or with the vehicle of 0.1% DMSO. After a further 24 hour incubation period the supernatant was harvested and the content of prostaglandin E2 was measured by a radioimmunoassay, as described by Vlahos, R., & Stewart, A. G. (1999). (“Interleukin-1α and Tumour necrosis factor-α inhibit airway smooth muscle DNA synthesis by a glucocorticoid-sensitive induction of cyclo-oxygenase-2. British Journal of Pharmacology, 126, 1315-1324). […] The data in the table are presented as percentage of the control level of Prostaglandin E2.
Several analogues were evaluated for their actions on the release of PGE2 from the human U937macrophage cell line. Cells were stimulated by exposure to PMA 1 nM and after a period allowed for adherence of cells to the plastic culture dish, the cell were treated with one of several CP analogues. […] The chemical structures of CP1-56 and CP1-58 are as follows: […]

Data set [3] has as its system PGE2 release in J774 macrophages. In words: PGE2 release from LPS/IFNγ-stimulated J774 macrophages (radioimmunoassay). To be noted: Mus musculus, J774, 24 h, 30 min pre-treatment, 24 hour incubation; for activity at 1 µM: read-out: Effects on PGE2 release in J774 macrophages at 1 μM as a % of LPS/IFNγ control, mean; for activity at 10 µM: l0 μM, read-out: Effects on PGE2 release in J774 macrophages at l0 μM as a % of LPS/IFNγ control, mean. Format: cell-based, murine.

Regarding `COc1cc([C@H]2CC[C@@](C)(CO)CC2)c(C(C)=NOCc2ccc([N+](=O)[O-])cc2)cc1O` [CP30451, 2′-(4-hydroxymethyl-4-methyl)cyclohexyl-5′-hydroxy-4′-methoxyacetophenone O-4-Nitrobenzyl Oxime], the “Log IC50 RLM binding” value in data set [1] is −5.73. Besides, the activity at 1 µM in data set [2] worked out at 67%.
Take `COc1cc(/C(C)=N/OCc2ccc([N+](=O)[O-])cc2)ccc1O` [CP30261, (E)-4′-Hydroxy-3′-methoxyacetophenone O-4-Nitrobenzyl Oxime]: the melting point lay in the range of 118.4 to 121.1 °C. The “Log IC50 RLM binding” value in data set [1] is recorded as −6.65.
As to `COc1ccc(/C(C)=N/OCc2ccc([N+](=O)[O-])cc2)cc1OC(C)C` [CP30254, (E)-3′-Isopropoxy-4′-methoxyacetophenone O-4-Nitrobenzyl Oxime], the melting point was 44.5 to 46.1 °C.
On the same count and under the same terms, the same measure for `C/C(=N\OCc1ccc([N+](=O)[O-])cc1)c1ccc2c(c1)OCO2` [CP30255, (E)-3′,4′-Methylenedioxyacetophenone O-4-Nitrobenzyl Oxime]: 158.7 to 160.5 °C; for `COc1ccc(/C(C)=N/OCc2ccc([N+](=O)[O-])cc2)cc1F` [CP9123, 3′-Fluoro-4′-methoxyacetophenone-O-4-nitrobenzyloxime]: 67 to 68 °C; for `C/C(=N\OCc1ccc([N+](=O)[O-])cc1)c1cccc(O)c1` [CP30260, (E)-3′-Hydroxyacetophenone O-4-Nitrobenzyl Oxime]: 123.6 to 125.3 °C.
Consider `COc1ccc(/C(C)=N/OCc2ccc3nonc3c2)cc1O` [AA-1-80], for which the “Log IC50 RLM binding” value in data set [1] is recorded as −6.33. Moreover, the activity at 1 µM in data set [2] is 38%.
In turn, `COc1ccc(/C(C)=N/OCc2ccc([N+](=O)[O-])cc2)cc1` [CP30253, (E)-4′-Methoxyacetophenone O-4-Nitrobenzyl Oxime] had a melting point of 88.2 to 89.5 °C. In data set [3], the activity at 1 µM worked out at 47% and the activity at 10 µM amounted to 4%.
With `Brc1cc2c(cc1/C=N/OCc1ccccc1)OCO2` [Compound 10-OK-07a], the “Log IC50 RLM binding” value in data set [1] was −4.76. In addition, the activity at 1 µM in data set [2] worked out at 114%.
The corresponding values for `COc1ccc(/C(C)=N/OCc2ccc3nonc3c2)cc1OC` [AA-1-58] are −4.74 and 111%.
The corresponding values for `COc1cc([C@H]2CC[C@](C)(CO)CC2)c(C(C)=NOCc2ccc3nonc3c2)cc1O` [CP30452, 2′-(4-Hydroxymethyl-4-methyl)cyclohexyl-5′-hydroxy-4′-methoxyacetophenone O-(benzofurazan-5-yl)methyl Oxime] are −5.54 and 89%.
As to `COc1cc(Br)c(/C(C)=N/OCc2ccc([N+](=O)[O-])cc2)cc1O` [CP302108-Major, (E)-2′-Bromo-5′-hydroxy-4′-methoxyacetophenone O-4-Nitrobenzyl Oxime], the melting point is 136.8 to 138.4 °C.
Consider `COc1ccc(/C(C)=N/OCc2cccc(F)c2)cc1F` [CP9125, 3′-Fluoro-4′-methoxyacetophenone-O-3-fluorobenzyloxime], for which the melting point amounted to 67 °C. Also, the “Log IC50 RLM binding” value in data set [1] is −5.5.
In the case of `COc1ccc(/C(C)=N/OCc2ccc(F)c(F)c2)cc1F` [CP9126, 3′-Fluoro-4′-methoxyacetophenone-O-3,4-difluorobenzyloxime], the melting point fell in the range of 62 to 63 °C.
As to `COc1cc(/C(C)=N/OCc2ccc3nonc3c2)ccc1O` [AA-1-56], the “Log IC50 RLM binding” value in data set [1] is listed as −6.21. Further, the activity at 1 µM in data set [2] worked out at 16%.
`C/C(=N\OCc1ccc([N+](=O)[O-])cc1)c1ccc(O)c(F)c1` [CP9132, 3′-Fluoro-4′-hydroxyacetophenone-O-4-nitrobenzyloxime]: the melting point was in the range of 93 to 94 °C.
The same measure, in the same setting: next, `COc1cc(/C(C)=N/OCc2ccc3nonc3c2)ccc1F` [CP9129, 4′-Fluoro-3′-methoxyacetophenone-O-[(benzo[c][1,2,5]oxadiazol-5-yl)methyl]oxime]: 65 °C.
Take `C/C(=N\OCc1ccc2nonc2c1)c1ccccc1` [AA-1-53]: the activity at 1 µM in data set [2] turned out to be 91%.
`COc1cc(-c2ccc(C(F)(F)F)cc2)c(/C(C)=N/OCc2ccc([N+](=O)[O-])cc2)cc1O` [CP30346, (E)-2′-(4-Trifluoromethylphenyl)-5′-hydroxy-4′-methoxyacetophenone O-4-Nitrobenzyl Oxime] displayed a melting point of 111.5 to 114.1 °C. Besides, the “Log IC50 RLM binding” value in data set [1] was −5.99. Moreover, in data set [3], the activity at 1 µM amounted to 78% and the activity at 10 µM worked out at 34%.
In turn, `COC(=O)c1ccc(CO/N=C(\C)c2ccc(OC)c(O)c2)cc1` [CP30263, (E)-3′-Hydroxy-4′-methoxyacetophenone O-4-Carbomethoxybenzyl Oxime] registered a melting point of 97.7 to 98.7 °C. Besides, the “Log IC50 RLM binding” value in data set [1] is recorded as −6.46.
Turning to `COc1cc2c(cc1OS(N)(=O)=O)C(=NOCc1ccc([N+](=O)[O-])cc1)C(C)(C)CC2` [AA-1-79], the “Log IC50 RLM binding” value in data set [1] was −4.58. The activity at 1 µM in data set [2] is 113%.
For `C/C(=N\OCc1ccc2nonc2c1)c1ccc2c(c1)OCO2` [AA-1-55], the activity at 1 µM in data set [2] turned out to be 90%.
As for `COc1cc(-c2ccc(NC(=O)OC(C)(C)C)cc2)c(/C(C)=N/OCc2ccc([N+](=O)[O-])cc2)cc1O` [CP30342, (E)-2′-(4-tert-Butoxycarbonylaminophenyl)-5′-hydroxy-4′-methoxyacetophenone O-4-Nitrobenzyl Oxime], the melting point is 91 to 96.8 °C. Further, the “Log IC50 RLM binding” value in data set [1] is reported as −6.79. Also, in data set [3], the activity at 1 µM came out at 19% and the activity at 10 µM stood at 0%.
Regarding `COc1cc([C@H]2CC[C@](C)(CO)CC2)c(C(C)=NOCc2ccc([N+](=O)[O-])cc2)cc1O` [CP30450B, 2′-(4-hydroxymethyl-4-methyl)cyclohexyl-5′-hydroxy-4′-methoxyacetophenone O-4-Nitrobenzyl Oxime], in data set [1], the “Log IC50 RLM binding” value was −5.85. Moreover, the “Effects on PGE2 release in U937 cells at 1 μM as a % of PMA control, mean” value in data set [2] is on record as 77 % of PMA control.
With `COc1cc([C@H]2CC[C@](C)(CO)CC2)c(C(C)=NOCc2ccc([N+](=O)[O-])cc2)cc1O` [CP30450A, 2′-(4-hydroxymethyl-4-methyl)cyclohexyl-5′-hydroxy-4′-methoxyacetophenone O-4-Nitrobenzyl Oxime], in data set [1], the “Log IC50 RLM binding” value is −5.81. The activity at 1 µM in data set [2] came out at 80%.
Regarding `COc1ccc(/C(C)=N/OCc2cc(F)cc(F)c2)cc1O` [CP30274, (E)-3′-Hydroxy-4′-methoxyacetophenone O-3,5-Difluorobenzyl Oxime], the melting point fell in the range of 47.7 to 50.2 °C. Besides, the “Log IC50 RLM binding” value in data set [1] was −6.86.
With `C/C(=N\OCc1ccc([N+](=O)[O-])cc1)c1ccccc1` [CP30252, (E)-Acetophenone O-4-Nitrobenzyl Oxime], the melting point was in the range of 91.3 to 92.3 °C.
For the molecule `COc1ccc(/C(C)=N/OCc2ccc3nonc3c2)cc1` [AA-1-54], in data set [2], the activity at 1 µM was found to be 76%.
As for `C/C(=N\OCc1ccc2nonc2c1)c1ccc(O)c(F)c1` [CP9128, 3′-Fluoro-4′-hydroxyacetophenone-O-[(benzo[c][1,2,5]oxadiazol-5-yl)methyl]oxime], the “Log IC50 RLM binding” value in data set [1] is on record as −5.9. In data set [3], the activity at 1 µM came out at 62% and the activity at 10 µM is 65%.
`COc1ccc(/C(C)=N/OCc2ccc([N+](=O)[O-])cc2)cc1OC` [CP30257, (E)-3′,4′-Dimethoxyacetophenone O-4-Nitrobenzyl Oxime] displayed a melting point of 118.4 to 121 °C.
In the case of `COc1ccc(/C(C)=N/OCc2ccc(C#N)cc2)cc1O` [CP30283, (E)-3′-Hydroxy-4′-methoxyacetophenone O-4-Cyanobenzyl Oxime], the melting point lay in the range of 125.9 to 129.7 °C. For the same molecule, the “Log IC50 RLM binding” value in data set [1] is listed as −6.05.
As to `COc1cc(-c2ccc(C)cc2)c(/C(C)=N/OCc2ccc([N+](=O)[O-])cc2)cc1O` [CP30345, (E)-5′-Hydroxy-4′-methoxy-2′-(4-methylphenyl)acetophenone O-4-Nitrobenzyl Oxime], the melting point was 105.9 to 108.7 °C. Besides, the “Log IC50 RLM binding” value in data set [1] is listed as −6.33. Further, in data set [3], the activity at 1 µM was determined as 76% and the activity at 10 µM was 1%.
With `COc1ccc(/C(C)=N/OCc2cccc(C)c2)cc1O` [CP30264, (E)-3′-Hydroxy-4′-methoxyacetophenone O-3-Methylbenzyl Oxime], the “Log IC50 RLM binding” value in data set [1] was −6.96. For the same molecule, in data set [3], the activity at 1 µM stood at 77% and the activity at 10 µM amounted to 74%.

The record behind these values is patent publication US8536157B2, “Non-steroidal compounds” (The University of Melbourne, priority 2007, dated 2013).
